Reference: patent publication US20120040941A1, “5-(2--1-HYDROXYETHYL)-8-HYDROXYQUINOLIN-2(1H)-ONE AND ITS USE IN THE TREATMENT OF PULMONARY DISEASES” (priority 2009, published 2012)

How the values were obtained:
Assay type in all cases: in vivo, human
[1] = tested on: asthma patients; test: Clinical Phase II study: lung function (spirometry, body plethysmography) after single inhaled doses
Excerpt: (§1) Clinical Phase II study: A randomised double-blind, double-dummy, placebo and active comparator-controlled, cross-over trial assesses the activity, safety, tolerability and pharmacokinetics of single doses of 5-(2-{[6-(2,2-difluoro-2-phenylethoxy)hexyl]amino}-1-(R)-hydroxyethyl)-8-hydroxyquinolin-2(1H)-one heminapadisylate by inhalation in asthma patients.
(§2) Methods: Men with a diagnosis of mild to moderate persistent asthma, as defined by the 2006 GINA guideline, for at least 6 months prior to screening and with a FEV 1 61-85% of the predicted normal values (according to Quanjer et al. 1993) were randomised to treatment sequences comprising a single-dose administration of 5-(2-{[6-(2,2-difluoro-2-phenylethoxy)hexyl]amino}-1-(R)-hydroxyethyl)-8-hydroxyquinolin-2(1H)-one heminapadisylate (at metered nominal doses of 5, 10 and 25 micrograms in the Cyclohaler® device), two administrations (at time points 0 and 12 hours) of Salmeterol (at a metered nominal dose of 50 micrograms in the Cyclohaler® device) and placebo administered all of them by means of a dry powder inhaler. Lung function measurements included (by spirometry) FEV1, PEF, FVC, FEF25-75, and (by body plethysmography) sGaw and Raw.

[2] = Clinical Phase II study: pharmacokinetics, plasma level after inhalation; settings: subjects receiving the dose of 5 micrograms by inhalation
Excerpt: as §1, §2

[3] = tested on: asthma patients; test: Clinical Phase II study: safety and tolerability, adrenergic adverse events
Excerpt: as §1, §2

[4] = single dose 5 micrograms, patients with asthma

For `O=c1ccc2c([C@@H](O)CNCCCCCCOCC(F)(F)c3ccccc3)ccc(O)c2[nH]1` [5-(2-{[6-(2,2-difluoro-2-phenylethoxy)hexyl]amino}-1-(R)-hydroxyethyl)-8-hydroxyquinolin-2(1H)-one], the “differences in dose effect between the different doses” value ([1]; 5, 10 and 25 micrograms) was “no evidence of differences in dose effect”, the “bronchodilatory action, time after dosing” value ([1]; all doses (5, 10 and 25 micrograms), single inhalation) was “up to 36 hours” and the bronchodilation [1, 4] was “supramaximal long-lasting bronchodilation”. For the same compound, the “increase in average trough FEV1 compared to salmeterol” value ([1]; single dose vs salmeterol 50 micrograms at 0 and 12 hours) was “statistically significant”, the “average peak and trough FEV1 compared with placebo and with salmeterol” value ([1]; single inhaled doses 5, 10 and 25 micrograms (all doses tested), salmeterol 2 x 50 micrograms, mild to moderate persistent asthma) was “clearly increased” and the plasma level [2] was < 2.5 pg/mL. The “adverse events commonly seen after adrenergic stimulation (tremor, tachycardia, restlessness)” value ([3]; doses 5, 10 and 25 micrograms, single inhalation) was “occurred only with the two higher (10 and 25 micrograms) doses” and the systemic adrenergic effects [3, 4] was “without producing systemic adrenergic effects”.
